Measured values from patent US20110098556A1, “Computer-Based Method And System For Imaging-Based Dynamic Function Evaluation Of An Organ” (priority 2008, published 2011).
“And” between values parts separate entries of the source, which are not always exact repeats. Equal entries are not always repeated.

How the values were obtained:
[1] = in vivo; cited from earlier work
liver [2] = experiment: Gd-EOB-DTPA-enhanced DHCE-MRI in patients with primary biliary cirrhosis (PBC); format: in vivo, human
Protocol: (§1) T1-weighted Gd-EOB-DTPA-enhanced DHCE-MRI was performed on 20 healthy volunteers, 10 men and 10 women, and on patients with an established diagnosis of PBC. Routine serum liver function tests were performed at inclusion in the study on the healthy volunteers, and for the patients it was recorded from the most recent visit documented in their clinical charts. The healthy volunteers had no history of hepato-biliary disease, previous hepato-biliary surgery or alcohol abuse. All subjects were asked to be fasting for at least four hours prior to the examination. For each patient, relevant clinical data was documented and together with the results from the liver function tests they were used to calculate the CPS, Mayo risk score and MELD score.
(§2) T1-weighted Gd-EOB-DTPA-enhanced DHCE-MRI was performed using a Philips Intera 1.5T scanner (Best, Holland), with a Philips four-channel SENSE body coil according to the protocol in Example 1. Deconvolutional analysis was performed using truncated singular value decomposition (TSVD). HEF and irBF were calculated as described above. […] The Mann-Whitney U-test was used for test of significance and the significance level was set to […]. All segments in every patient and controls yielded an observation and in the statistical analysis, all observations were regarded as independent observations, even if they originated from one individual. Thus, the study yielded 180 observations for each of the abovementioned parameters from the controls, and 108 observations from PBC patients.

liver [3] = experiment: Gd-EOB-DTPA-enhanced MRI in patients with primary sclerosing cholangitis (PSC); format: in vivo, human; set-up: HEF: unit not given here
Protocol: as §1, with “MRI” for “DHCE-MRI”, “PSC.” for “PBC.”
as §2, with “MRI” for “DHCE-MRI”, “protocol as outlined” for “protocol”, “PSC” for “PBC”

liver [4] = experiment: T1-weighted Gd-EOB-DTPA-enhanced DHCE-MRI liver function test, healthy volunteers; format: in vivo, human; set-up: key to median HEF / HEF, mean / HEF, median / HEF, max / HEF: ratio of extrapolated hepatic retention curve to vascular peak of HE curve; details: for median HEF: healthy volunteers; for HEF, mean / HEF, max / HEF, median: n=20 healthy volunteers
Protocol: Deconvoluted liver response curves were analyzed with respect to HEF and RBF. HEF was described by Brown et al using Tc-99-disofenin scintigraphy as a measurement of hepatic extraction efficiency, and could be understood as the percentage of tracer that would have been extracted if the tracer had been injected directly into the afferent blood supply of the liver without subsequent recirculation. […] The HE curve can be divided into the vascular phase and the hepatocyte retention phase, which describes the hepatic extraction. We calculated HEF using a monoexponential fit to the HE-curve data points from 420 to 1800 seconds after the time of injection of the tracer. The starting point at 420 seconds was chosen after visual inspection of the deconvoluted HE curves. The fitted curve, the hepatic retention curve (HRC, a mono-exponentially decaying fitted curve), is then extrapolated back to the time of the vascular peak value, and HEF is defined as the ratio between the extrapolated HRC curve and the vascular peak of the HE curve (also shown in FIG. 3),
RBF, giving a relative measurement of blood flow in the liver, is described as the initial peak value of the HE curve. RBF values were normalized to the segment with the highest RBF, i.e. the segment with the highest RBF was set to 100%.
The input function was defined by a region of interest (ROI) placed in the hilar part of the portal vein. Due to patient motion, the input function ROI was adjusted in each dynamic acquisition so the voxels represent portal vein blood. Liver response function curves were defined by placing three ROIs in each liver segment (I to VIII with segment IV divided into IVa and IVb). The relative enhancement over time of the voxels in the ROI was regarded as the parenchymal response function for that ROI. Data points were interpolated using equidistant spacing (60 s) over the 90-minute time period. […] Care was taken to as far as possible to exclude major blood vessels and visible bile ducts when the ROIs were placed. Segments were defined and nomenclature adhered to as proposed by Strasberg SM. Terminology of liver anatomy and liver resections: coming to grips with hepatic Babel. J Am Coll Surg 1997; 184(4):413-434, which is incorporated herein by reference in its entirety. However, other segmentations may be used in other embodiments.
HEF and RBF were calculated for each ROI both with TSVD and FA+tail using specific in-house software written in MATLAB® (Mathworks, […], USA). Thus, each ROI yielded two values for HEF and RBF respectively. For TSVD, a static truncation threshold was set at c=0.07. A cosine function from 0 to π/2 with the initial height of the last point of x(t) and y(t) was added for the DA performed with FA, and the length of the tail was set to be three times the length of the total sampling period of 90 minutes. […]
To arrive at an estimation of the model parameters, an iterative method was used. After assigning starting values to kij and f the impulse response function h(t) was estimated through Eq 10, and an output function yout(t) was calculated through yout(t)=h(t) ? x(t)+f·x(t), using the input function x(t) from the portal vein as an estimate for the blood pool signal in Equation 7. The response function y(t) on the other hand was measured in a ROI in the liver parenchyma, and the parameters kij and f were determined by iteratively minimizing the squared difference diff=(y(t)−yout(t))^2, see FIG. 17.
For some response curves either T10, or both T5 and T10, were beyond the last measured time point, and no value was set. Tmax, T5 and T10 were measured in seconds.
where g(t) is the fitted curve and the fitting parameters c2 and TU describe contrast uptake, while c1 and TE describe the liver contrast excretion. Both TE and TU were calculated in minutes.
T1-weighted Gd-EOB-DTPA-enhanced DHCE-MRI was performed on 20 healthy volunteers, 10 men and 10 women, ages ranging from 22 to 45 years. […]

[5] = individual PBC patient, median of 9 segmental values
[6] = median for PBC patients (n = 108)
[7] = individual PSC patient, median of 9 segmental values
[8] = median for PSC patients (segments n = 108)
[9] = median for healthy controls (n = 180)

T5 (liver [2]; [6]): 1440 s | T10 (liver [2]; [6]): 1920 s | TE (liver [2]; [6]): 2850 min | Tmax (liver [2]; [6]): 41 min | HEF (liver [2]; median for PBC patients (n = 108 segments)): 0.161 | HEF (liver [3]; [8]): 0.176 | T5 (liver [3]; [8]): 1340 s | T10 (liver [3]; [8]): 2050 s | TE (liver [3]; [8]): 204 min | Tmax (liver [3]; [8]): 37.67 min | signal intensity half-time (TE) (liver [4]; compared with total scan time): > 90 min | mean HEF (liver [4]; example 1, healthy volunteers): above 20% | hepatic extraction fraction (HEF) (liver [4]; example curve of FIG. 3, FA+tail): approximately 17% | median HEF (liver [4]; left hemiliver, FA+tail): 0.194 | median HEF (liver [4]; left hemiliver, TSVD): 0.196 | HEF (liver [4]; median for 20 healthy controls (n = 180 segments), TSVD): 0.201 | T5 (liver [4]; [9]): 1600 s | T10 (liver [4]; [9]): 2295 s | Tmax (liver [4]; [9]): 33.33 min | HEF, mean (liver [4]; 180 segmental values, deconvolution by TSVD): 0.215 | HEF, max (liver [4]; FA + tail): 0.440 | HEF, median (liver [4]; FA + tail): 0.210 | HEF, max (liver [4]; TSVD): 0.436 | HEF, median (liver [4]; TSVD): 0.208 | HEF, mean (liver [4]; deconvolution by FA + tail): 0.217 | median HEF (liver [4]; right hemiliver, FA+tail): 0.224 | median HEF (liver [4]; right hemiliver, TSVD): 0.218
SMILES: CCOc1ccc(CC(CN(CCN(CC(=O)[O-])CC(=O)[O-])CC(=O)[O-])N(CC(=O)[O-])CC(=O)[O-])cc1.[Gd+3].[Na+].[Na+] (stereo not drawn) [Gd-EOB-DTPA, Gadolinium ethoxybenzyl diethylenetriaminepentaacetic acid]
fraction eliminated by renal excretion (glomerular filtration) [1]: 50% | hepatic clearance [1]: about 50% | T5 (time from Tmax to five percent decay) (liver [2]; [5]): 24.33 min and 18.17 min and 40.67 min and 33 min and 24.83 min and 21.67 min and 34 min and 24.67 min and 25.67 min and 13.5 min and 4 min and 15.7 min | T10 (time from Tmax to ten percent decay) (liver [2]; [5]): 30.5 min and 28 min and 38 min and 34 min and 50.5 min and 32.5 min and 48 min and 41 min and 41.33 min and 30 min and 15.7 min and 24 min | Tmax (time to maximum intensity) (liver [2]; [5]): 48.33 min and 35 min and 36.67 min and 66.67 min and 43.33 min and 60 min and 22.67 min and 40 min and 8 min and 3.33 min and 51.67 min | HEF (liver [2]; individual PBC patient, median of 9 segmental values, TSVD): 0.163 (2×) and 0.225 and 0.302 and 0.150 and 0.093 and 0.226 and 0.199 and 0.155 and 0.106 and 0.047 and 0.152 | TE (excretion half-time) (liver [2]; individual PBC patient, median of 9 segments, bi-exponential fit): 3780 min and 1591 min and 4791 min and 6961 min and 4241 min and 1180 min and 8011 min and 2130 min and 2481 min and 1141 min and 2830 min and 1281 min | T5 (liver [3]; [7]): 1720 s and 980 s and 1620 s and 940 s and 1420 s and 1380 s and 1170 s and 1400 s and 1250 s and 1500 s and 1340 s and 2140 s | T10 (liver [3]; [7]): 1980 s and 1560 s and 1950 s and 1720 s and 2645 s and 1840 s and 2340 s and 2600 s and 2050 s and 2490 s and 2460 s and 3540 s | Tmax (liver [3]; [7]): 56.67 min and 41.67 min and 46.67 min and 27 min and 31 min and 30 min and 48 min and 21.33 min and 36.67 min and 28 min and 63.33 min | HEF (liver [3]; individual PSC patient, median of 9 segmental values, TSVD): 0.158 and 0.213 and 0.221 and 0.307 and 0.140 and 0.220 and 0.159 and 0.136 (2×) and 0.123 and 0.174 and 0.240 | TE (liver [3]; individual PSC patient, median of 9 segments, bi-exponential fit): 1427 min and 110 min and 184 min and 102 min and 244 min and 211 min and 251 min and 203 min and 147 min and 128 min and 341 min and 452 min
